In patent publication US20220105082A1, “NEW FORMULATIONS CONTAINING LEUKOTRIENE RECEPTOR ANTAGONISTS” (JIANGYIN MUCOCARE PHARMACEUTICAL CO., LTD., priority 2019, published 2022):

How the values were obtained:
BALB/c mice = test: Mouse ear swelling model (xylene induced); type: in vivo; details: cream 5 mg/g, 500 μg/mouse on right ear, 40 minutes
Procedure: 35 healthy male BALB/c mice of 6-8 weeks of age and average body weight of 18-25 g supplied by Changzhou Cvens Experimental Animal Co. Ltd. were housed and cared for about for 1 week prior to the experiment. The housing temperature was 25-27° C. with 74% humidity, with alternating 12 hour periods of light and darkness, and free access to food and water. The mice were randomly divided into 4 groups as described in Table 1 below, with 5 mice in each group.
The left ear of each mouse was used as autologous control. 20 μL of xylene (Shanghai Aladdin Bio-Chem Technology Co., Ltd., Shanghai, China) was applied to the right ear of each mouse, both inside and outside. The ear started to swell in about 4 minutes. Then, different amounts of each study treatments or vehicles (as described in Table 1 below) were applied to the right ears in each group. The mice were put back into their cages.
The mice were sacrificed by cervical dislocation after 40 minutes. The left and right ears were cut off. A skin pouch (Electron Microscopy Sciences, Hatfield, USA) with diameter of 8 mm was used to take a piece of ear from the same site of both ears. The weights were recorded the weights and the swelling rates were calculated as follows:
Swelling rate=(right ear weight−left ear weight)/left ear weight×100%

SD rats = test: Idiopathic pulmonary fibrosis (IPF) model, bleomycin-induced; type: in vivo, rat; details: pirfenidone 120 mg/kg intragastric, 28 days
Procedure: 50 Adult SD rats (Zhejiang Experimental Animal Center (Animal Production License Number: SCXK (Zhejiang, Chi-00, half male and half female were kept at 21-26° C. with 40-70% relative humidity, with free access to food and water.
After 7 days of adaptive feeding, the rats were randomly divided into 5 groups: sham operation group, idiopathic pulmonary fibrosis model group, Monte gavage administrating group, Monte inhalation administrating group and pirfenidone control group.
The rats were anaesthetized and placed on an operating table in the supine position, exposing the trachea. 150 μL of Bleomycin (Bleomycin Hydrochloride for Injection, Zhejiang Hisun Pharmaceutical Co. Ltd, China) in saline solution was injected into the trachea through the gap between the tracheal cartilage at 5 mg/kg. (The sham-operation group were given an equal volume of normal saline.)
The rats were lifted vertically after administration and were rotated to allow the drug to evenly disperse. Once the rats recovered, after approximately 7 days, they were administrated different drugs according to Table 1 below. […]

SMILES | xylene induced swelling (BALB/c mice) | HYP (SD rats; lung) | IL-10 (SD rats; tissue)
COc1cc(C(=O)NS(=O)(=O)c2ccccc2C)ccc1Cc1cn(C)c2ccc(NC(=O)OC3CCCC3)cc12 [zafirlukast] | significantly reduce |  | 
Cc1ccc(=O)n(-c2ccccc2)c1 [Postitive Control, pirfenidone] |  | 755.49 ± 66.64 μg/g wet weight | 43.52 ± 4.30 pg/mg protein
